The text below walks through data of patent US9376425B2, “Heterocyclic compounds as MDM2 inhibitors for the treatment of cancer” (AMGEN INC., priority 2011, dated 2016).

Each structure is given as a SMILES string. Bounds are passed on as bounds.

This assay deals with T1, human MDM2 (GST-hMDM2 1-188), interaction with biotinylated-p53 (1-83) (Homo sapiens, UniProt Q00987).
T1 construct: Amino acid residues 1-188 of human MDM2 were expressed; made in house; host or cells: Escherichia coli
T1 sequence (Q00987 1-188): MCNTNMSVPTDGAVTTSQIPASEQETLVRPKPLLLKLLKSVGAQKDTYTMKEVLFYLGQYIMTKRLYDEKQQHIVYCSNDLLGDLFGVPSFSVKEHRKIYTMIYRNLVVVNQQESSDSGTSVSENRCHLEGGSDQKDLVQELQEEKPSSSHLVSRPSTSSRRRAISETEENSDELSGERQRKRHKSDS
The assay is described as follows: improved HTRF assay (HTRF2 assay), inhibition of HDM2-p53 interaction. In kind it is binding. The conditions noted are these: 0.2 nM GST-hMDM2, 0.5 nM biotinylated-p53, 100 mM KF. In a few lines:
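GST-hMDM2 preincubated 20 min at RT with serially diluted compound, then biotinylated p53 (1-83, E. coli) added for 60 min. Detection with SA-XLent, anti-GST cryptate and KF, equilibrated >4 h; final DMSO 2%. TR-FRET read; % inhibition calculated relative to nutlin-3.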
For orientation: TR-FRET usually uses a lanthanide donor and a delayed reading to cut background.
`CC[C@@H]([C@H](C)S(=O)(=O)C(C)(C)C)N1C(=O)[C@@H](CC(=O)O)O[C@H](c2cccc(Cl)c2)[C@H]1c1ccc(Cl)cc1` (single isomer, unassigned) [Example 419] had an IC50 of 4 nM.
`CC[C@@H]([C@H](C)S(=O)(=O)C(C)(C)C)N1C(=O)[C@@H](CC(=O)O)O[C@H](c2cccc(Cl)c2)[C@H]1c1ccc(Cl)cc1` (single isomer, unassigned) [Example 420]: the IC50 is 12 nM.
In turn, `CC(C)S(=O)(=O)[C@H]1CCC[C@@H]1N1C(=O)[C@@H](CC(=O)O)O[C@H](c2cccc(Cl)c2)[C@H]1c1ccc(Cl)cc1` (single isomer, unassigned) [Example 421] showed an IC50 of 13600 nM.
As for `CC(C)S(=O)(=O)[C@H]1CCC[C@@H]1N1C(=O)[C@@H](CC(=O)O)O[C@H](c2cccc(Cl)c2)[C@H]1c1ccc(Cl)cc1` (single isomer, unassigned) [Example 422], the IC50 stood at 3 nM.
The compound `C[C@@H](CS(=O)(=O)C(C)(C)C)N1C(=O)[C@@H](CC(=O)O)O[C@H](c2cc(F)cc(Cl)c2)[C@H]1c1ccc(Cl)c(F)c1` (single isomer, unassigned) [Example 423, 2-((2R,5R,6R)-4-((S)-1-(tert-Butylsulfonyl)propan-2-yl)-5-(4-chloro-3-fluorophenyl)-6-(3-chloro-5-fluorophenyl)-3-oxomorpholin-2-yl)acetic acid or 2-((2S,5R,6R)-4-((S)-1-(tert-butylsulfonyl)propan-2-yl)-5-(4-chloro-3-fluorophenyl)-6-(3-chloro-5-fluorophenyl)-3-oxomorpholin-2-yl)acetic acid] came in with an IC50 of 1 nM.
With `C[C@@H](CS(=O)(=O)C(C)(C)C)N1C(=O)[C@@H](CC(=O)O)O[C@H](c2cc(F)cc(Cl)c2)[C@H]1c1ccc(Cl)c(F)c1` (single isomer, unassigned) [Example 424, 2-((2R,5R,6R)-4-((S)-1-(tert-Butylsulfonyl)propan-2-yl)-5-(4-chloro-3-fluorophenyl)-6-(3-chloro-5-fluorophenyl)-3-oxomorpholin-2-yl)acetic acid or 2-((2S,5R,6R)-4-((S)-1-(tert-butylsulfonyl)propan-2-yl)-5-(4-chloro-3-fluorophenyl)-6-(3-chloro-5-fluorophenyl)-3-oxomorpholin-2-yl)acetic acid], half-maximal inhibition (IC50) required 3 nM.
Take `CC[C@@H](CS(=O)(=O)C(C)(C)C)N1C(=O)[C@@H](CC(=O)O)O[C@H](c2cc(F)cc(Cl)c2)[C@H]1c1ccc(Cl)c(F)c1` (single isomer, unassigned) [Example 425, 2-((2R,5R,6R)-4-((S)-1-(tert-Butylsulfonyl)butan-2-yl)-5-(4-chloro-3-fluorophenyl)-6-(3-chloro-5-fluorophenyl)-3-oxomorpholin-2-yl)acetic acid or 2-((2S,5R,6R)-4-((S)-1-(tert-butylsulfonyl)butan-2-yl)-5-(4-chloro-3-fluorophenyl)-6-(3-chloro-5-fluorophenyl)-3-oxomorpholin-2-yl)acetic acid]: the IC50 was less than 1 nM.
`CC[C@@H](CS(=O)(=O)C(C)(C)C)N1C(=O)[C@@H](CC(=O)O)O[C@H](c2cc(F)cc(Cl)c2)[C@H]1c1ccc(Cl)c(F)c1` (single isomer, unassigned) [Example 426, 2-((2R,5R,6R)-4-((S)-1-(tert-Butylsulfonyl)butan-2-yl)-5-(4-chloro-3-fluorophenyl)-6-(3-chloro-5-fluorophenyl)-3-oxomorpholin-2-yl)acetic acid or 2-((2S,5R,6R)-4-((S)-1-(tert-butylsulfonyl)butan-2-yl)-5-(4-chloro-3-fluorophenyl)-6-(3-chloro-5-fluorophenyl)-3-oxomorpholin-2-yl)acetic acid] had an IC50 of 1 nM.
The result for `CC[C@@H](CS(=O)(=O)C(C)(C)C)N1C(=O)[C@@H](CC(=O)OC)O[C@H](c2cccc(Cl)c2)[C@H]1c1ccc(Cl)cc1` [Example 149, Methyl 2-((2R,5R,6R)-4-((S)-1-(tert-butylsulfonyl)butan-2-yl)-6-(3-chlorophenyl)-5-(4-chlorophenyl)-3-oxomorpholin-2-yl)acetate] reads 30 nM; that for `CC[C@@H](CS(=O)(=O)C(C)(C)C)N1C(=O)[C@H](CC(=O)OC)O[C@H](c2cccc(Cl)c2)[C@H]1c1ccc(Cl)cc1` [Example 150, Methyl 2-((2S,5R,6R)-4-((S)-1-(tert-butylsulfonyl)butan-2-yl)-6-(3-chlorophenyl)-5-(4-chlorophenyl)-3-oxomorpholin-2-yl)acetate], 21 nM.
As for `CC[C@@H](CS(=O)(=O)C(C)(C)C)N1C(=O)[C@H](CCO)O[C@H](c2cccc(Cl)c2)[C@H]1c1ccc(Cl)cc1` [Example 151, (2S,5R,6R)-4-((S)-1-(tert-butylsulfonyl)butan-2-yl)-6-(3-chlorophenyl)-5-(4-chlorophenyl)-2-(2-hydroxyethyl)morpholin-3-one], the IC50 amounted to 22 nM.
In turn, `CC[C@@H](CS(=O)(=O)C(C)(C)C)N1C(=O)[C@@H](CCO)O[C@H](c2cccc(Cl)c2)[C@H]1c1ccc(Cl)cc1` [Example 152, (2R,5R,6R)-4-((S)-1-(tert-butylsulfonyl)butan-2-yl)-6-(3-chlorophenyl)-5-(4-chlorophenyl)-2-(2-hydroxyethyl)morpholin-3-one] gave an IC50 of 37 nM.
Compound `CC[C@@H](CS(=O)(=O)C(C)(C)C)N1C(=O)[C@@H](CCOC)O[C@H](c2cccc(Cl)c2)[C@H]1c1ccc(Cl)cc1` [Example 153, (2R,5R,6R)-4-((S)-1-(tert-butylsulfonyl)butan-2-yl)-6-(3-chlorophenyl)-5-(4-chlorophenyl)-2-(2-methoxyethyl)morpholin-3-one] returned an IC50 of 59 nM.
Consider `C[C@@H](CSC(C)(C)C)N1C(=O)CO[C@H](c2cccc(Cl)c2)[C@H]1c1ccc(Cl)cc1` [Example 222, (5R,6R)-4-((S)-1-(tert-butylthio)propan-2-yl)-6-(3-chlorophenyl)-5-(4-chlorophenyl)morpholin-3-one], for which the IC50 is 170 nM.
Turning to `CC(C)(C)S(=O)(=O)[C@H]1CCCC[C@@H]1N1C(=O)[C@@H](CC(=O)O)O[C@H](c2cccc(Cl)c2)[C@H]1c1ccc(Cl)cc1` [Example 249, 2-((2R,5R,6R)-4-((1S,2S)-2-(tert-butylsulfonyl)cyclohexyl)-6-(3-chlorophenyl)-5-(4-chlorophenyl)-3-oxomorpholin-2-yl)acetic acid], the IC50 is 4 nM.
Under `Cc1ccc([C@H]2O[C@H](CC(=O)O)C(=O)N([C@H](CS(=O)(=O)C(C)(C)C)C3CC3)[C@@H]2c2ccc(Cl)cc2)cc1Cl` [Example 327, 2-((2R,5R,6R)-4-((S)-2-(tert-Butylsulfonyl)-1-cyclopropylethyl)-6-(3-chloro-4-methylphenyl)-5-(4-chlorophenyl)-3-oxomorpholin-2-yl)acetic acid] stands 51 nM.
Compound `CC[C@@H](CS(=O)(=O)C(C)(C)C)N1C(=O)[C@H](CC(=O)NC#N)O[C@H](c2cccc(Cl)c2)[C@H]1c1ccc(Cl)cc1` [Example 344, 2-((2S,5R,6R)-4-((S)-1-(tert-Butylsulfonyl)butan-2-yl)-6-(3-chlorophenyl)-5-(4-chlorophenyl)-3-oxomorpholin-2-yl)-N-cyanoacetamide] showed a half-maximal inhibitory concentration (IC50) of less than 1 nM.
Under `CC[C@@H](CS(=O)(=O)C(C)(C)C)N1C(=O)[C@@H](CC(=O)NC#N)O[C@H](c2cccc(Cl)c2)[C@H]1c1ccc(Cl)cc1` [Example 345, 2-((2R,5R,6R)-4-((S)-1-(tert-Butylsulfonyl)butan-2-yl)-6-(3-chlorophenyl)-5-(4-chlorophenyl)-3-oxomorpholin-2-yl)-N-cyanoacetamide] stands less than 1 nM.
Take `CC[C@@H](CS(=O)(=O)C(C)(C)C)N1C(=O)[C@@H](CNC(=O)OC(C)(C)C)O[C@H](c2cccc(Cl)c2)[C@H]1c1ccc(Cl)cc1` [Example 377, tert-Butyl (((2R,5R,6R)-4-((S)-1-(tert-utylsulfonyl)butan-2-yl)-6-(3-chlorophenyl)-5-(4-chlorophenyl)-3-oxomorpholin-2-yl)methyl)carbamate and tert-butyl (((2S,5R,6R)-4-((S)-1-(tert-butylsulfonyl)butan-2-yl)-6-(3-chlorophenyl)-5-(4-chlorophenyl)-3-oxomorpholin-2-yl)methyl)carbamate]: the IC50 is 86 nM.
Regarding `CC[C@@H](CS(=O)(=O)C(C)(C)C)N1C(=O)[C@@H](CC#N)O[C@H](c2cccc(Cl)c2)[C@H]1c1ccc(Cl)cc1` [Example 381, 2-((2R,5R,6R)-4-((S)-1-(tert-Butylsulfonyl)butan-2-yl)-6-(3-chlorophenyl)-5-(4-chlorophenyl)-3-oxomorpholin-2-yl)acetonitrile], inhibition was half-maximal at 66 nM (IC50).
As for `CC[C@@H](CS(=O)(=O)C(C)(C)C)N1C(=O)[C@@H](Cc2nnn[nH]2)O[C@H](c2cccc(Cl)c2)[C@H]1c1ccc(Cl)cc1` [Example 382, (2R,5R,6R)-2-((1H-Tetrazol-5-yl)methyl)-4-((S)-1-(tert-butylsulfonyl)butan-2-yl)-6-(3-chlorophenyl)-5-(4-chlorophenyl)morpholin-3-one], the IC50 is less than 1 nM.
Under `CC[C@@H](CS(=O)(=O)C(C)(C)C)N1C(=O)[C@H](Cc2nnn[nH]2)O[C@H](c2cccc(Cl)c2)[C@H]1c1ccc(Cl)cc1` [Example 383, (2S,5R,6R)-2-((1H-Tetrazol-5-yl)methyl)-4-((S)-1-(tert-butylsulfonyl)butan-2-yl)-6-(3-chlorophenyl)-5-(4-chlorophenyl)morpholin-3-one] stands less than 1 nM; under `CC(C)(C)S(=O)(=O)C[C@H](C1CC1)N1C(=O)[C@H](Cc2ccno2)O[C@H](c2cccc(Cl)c2)[C@H]1c1ccc(Cl)cc1` [Example 384, (2S,5R,6R)-4-((S)-2-(tert-Butylsulfonyl)-1-cyclopropylethyl)-6-(3-chlorophenyl)-5-(4-chlorophenyl)-2-(isoxazol-5-ylmethyl)morpholin-3-one], 13 nM.

As a reminder, the IC50 is the concentration at which inhibition is half-maximal.
